Data: the supplement of paper PMC6315032

Experiments:
Assay in all cases: apparent dissociation constant (pKDapp, Kinobeads competition, Cheng-Prusoff corrected) (-log10 M); higher = tighter binding
AAK1 = AAK1 (UniProt Q2M2I8); details: affinity matrix / lysate: Kinobeads, mixed HEK293/K-562/placenta lysate
ATM = ATM (UniProt Q13315); details: affinity matrix / lysate: Lipid Kinobeads, mixed HeLa/Jurkat/K-562 lysate
AURKC = AURKC (UniProt Q9UQB9); details: affinity matrix / lysate: Kinobeads, mixed HEK293/K-562/placenta lysate
AURKC, sequence (Q9UQB9 whole entry): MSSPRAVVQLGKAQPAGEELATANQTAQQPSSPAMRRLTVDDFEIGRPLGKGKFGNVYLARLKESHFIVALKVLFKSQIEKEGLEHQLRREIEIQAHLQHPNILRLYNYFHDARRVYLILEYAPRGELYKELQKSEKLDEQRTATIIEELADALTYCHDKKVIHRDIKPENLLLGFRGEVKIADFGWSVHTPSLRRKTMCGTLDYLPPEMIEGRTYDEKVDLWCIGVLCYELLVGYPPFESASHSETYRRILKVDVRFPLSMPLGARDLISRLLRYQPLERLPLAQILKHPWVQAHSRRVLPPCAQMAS

BRAF = BRAF (UniProt P15056); details: affinity matrix / lysate: Kinobeads, mixed HEK293/K-562/placenta lysate
BRAF, sequence (P15056 whole entry): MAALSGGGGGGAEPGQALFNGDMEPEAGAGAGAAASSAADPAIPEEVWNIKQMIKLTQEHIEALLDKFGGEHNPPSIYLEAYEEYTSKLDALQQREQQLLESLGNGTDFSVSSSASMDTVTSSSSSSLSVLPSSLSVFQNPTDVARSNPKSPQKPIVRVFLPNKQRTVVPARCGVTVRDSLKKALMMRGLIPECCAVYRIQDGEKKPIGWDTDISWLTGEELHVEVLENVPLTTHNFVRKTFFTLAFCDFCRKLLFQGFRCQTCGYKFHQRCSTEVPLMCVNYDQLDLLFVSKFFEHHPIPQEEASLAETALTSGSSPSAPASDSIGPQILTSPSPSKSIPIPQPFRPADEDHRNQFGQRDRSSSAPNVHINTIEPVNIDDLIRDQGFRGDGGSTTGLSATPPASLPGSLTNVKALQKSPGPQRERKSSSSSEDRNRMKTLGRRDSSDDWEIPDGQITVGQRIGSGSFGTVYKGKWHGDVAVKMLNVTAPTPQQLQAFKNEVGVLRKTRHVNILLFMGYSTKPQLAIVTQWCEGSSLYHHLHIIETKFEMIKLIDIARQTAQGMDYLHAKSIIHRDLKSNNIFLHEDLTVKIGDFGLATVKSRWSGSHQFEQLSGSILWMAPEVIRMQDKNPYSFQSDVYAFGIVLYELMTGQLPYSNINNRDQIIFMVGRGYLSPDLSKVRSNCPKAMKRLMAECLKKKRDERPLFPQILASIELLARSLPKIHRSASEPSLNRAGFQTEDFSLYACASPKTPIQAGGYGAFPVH

BRSK2 = BRSK2 (UniProt Q8IWQ3); details: affinity matrix / lysate: Kinobeads, mixed HEK293/K-562/placenta lysate
BRSK2, sequence (Q8IWQ3 whole entry): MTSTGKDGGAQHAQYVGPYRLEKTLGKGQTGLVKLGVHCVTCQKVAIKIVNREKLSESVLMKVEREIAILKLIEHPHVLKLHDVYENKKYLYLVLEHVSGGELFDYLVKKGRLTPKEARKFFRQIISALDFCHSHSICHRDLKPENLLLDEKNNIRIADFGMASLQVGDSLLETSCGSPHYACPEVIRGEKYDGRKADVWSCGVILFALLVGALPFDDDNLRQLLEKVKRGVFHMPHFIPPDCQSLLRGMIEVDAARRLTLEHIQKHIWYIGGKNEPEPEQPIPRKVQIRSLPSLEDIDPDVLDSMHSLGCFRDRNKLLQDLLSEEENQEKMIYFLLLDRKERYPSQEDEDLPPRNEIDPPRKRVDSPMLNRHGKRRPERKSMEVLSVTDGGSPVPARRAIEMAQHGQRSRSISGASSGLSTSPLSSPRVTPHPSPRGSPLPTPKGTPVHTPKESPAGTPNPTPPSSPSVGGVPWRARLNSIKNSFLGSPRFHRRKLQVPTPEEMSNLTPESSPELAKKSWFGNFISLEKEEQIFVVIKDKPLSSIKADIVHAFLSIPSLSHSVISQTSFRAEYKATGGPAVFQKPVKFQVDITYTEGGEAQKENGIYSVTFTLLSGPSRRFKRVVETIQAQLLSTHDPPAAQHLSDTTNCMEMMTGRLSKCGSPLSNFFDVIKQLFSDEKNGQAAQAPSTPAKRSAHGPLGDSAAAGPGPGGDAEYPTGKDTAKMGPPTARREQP

EPHB2 = EPHB2 (UniProt P29323); details: affinity matrix / lysate: Kinobeads, mixed HEK293/K-562/placenta lysate
ERN1 = ERN1 (UniProt O75460); details: affinity matrix / lysate: Kinobeads, mixed HEK293/K-562/placenta lysate
INSR = INSR (UniProt P06213); details: affinity matrix / lysate: Kinobeads, mixed HEK293/K-562/placenta lysate
MAPK7 = MAPK7 (UniProt Q13164); details: affinity matrix / lysate: Kinobeads, mixed HEK293/K-562/placenta lysate
MARK4 = MARK4 (UniProt Q96L34); details: affinity matrix / lysate: Kinobeads, mixed HEK293/K-562/placenta lysate
MARK4, sequence (Q96L34 whole entry): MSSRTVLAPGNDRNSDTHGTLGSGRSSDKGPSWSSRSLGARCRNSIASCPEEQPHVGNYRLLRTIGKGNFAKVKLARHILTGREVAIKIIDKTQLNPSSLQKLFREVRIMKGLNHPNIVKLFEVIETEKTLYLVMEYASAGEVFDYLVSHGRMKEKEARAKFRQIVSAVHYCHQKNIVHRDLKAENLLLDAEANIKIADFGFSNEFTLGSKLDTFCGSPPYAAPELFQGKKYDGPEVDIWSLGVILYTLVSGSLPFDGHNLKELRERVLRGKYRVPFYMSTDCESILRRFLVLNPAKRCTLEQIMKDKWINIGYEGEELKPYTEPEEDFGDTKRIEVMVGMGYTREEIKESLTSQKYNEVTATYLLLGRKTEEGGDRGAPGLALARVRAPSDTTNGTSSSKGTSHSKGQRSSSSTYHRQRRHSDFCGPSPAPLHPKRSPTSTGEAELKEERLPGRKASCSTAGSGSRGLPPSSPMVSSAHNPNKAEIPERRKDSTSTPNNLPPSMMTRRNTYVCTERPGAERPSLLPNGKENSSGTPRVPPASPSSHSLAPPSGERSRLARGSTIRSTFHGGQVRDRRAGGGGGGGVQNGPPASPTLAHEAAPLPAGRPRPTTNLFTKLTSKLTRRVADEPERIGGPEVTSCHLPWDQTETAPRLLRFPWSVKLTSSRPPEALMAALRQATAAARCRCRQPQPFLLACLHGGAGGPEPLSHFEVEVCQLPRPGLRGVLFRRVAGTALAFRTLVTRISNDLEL

MET = MET (UniProt P08581); details: affinity matrix / lysate: Kinobeads, mixed HEK293/K-562/placenta lysate
MET, sequence (P08581 whole entry): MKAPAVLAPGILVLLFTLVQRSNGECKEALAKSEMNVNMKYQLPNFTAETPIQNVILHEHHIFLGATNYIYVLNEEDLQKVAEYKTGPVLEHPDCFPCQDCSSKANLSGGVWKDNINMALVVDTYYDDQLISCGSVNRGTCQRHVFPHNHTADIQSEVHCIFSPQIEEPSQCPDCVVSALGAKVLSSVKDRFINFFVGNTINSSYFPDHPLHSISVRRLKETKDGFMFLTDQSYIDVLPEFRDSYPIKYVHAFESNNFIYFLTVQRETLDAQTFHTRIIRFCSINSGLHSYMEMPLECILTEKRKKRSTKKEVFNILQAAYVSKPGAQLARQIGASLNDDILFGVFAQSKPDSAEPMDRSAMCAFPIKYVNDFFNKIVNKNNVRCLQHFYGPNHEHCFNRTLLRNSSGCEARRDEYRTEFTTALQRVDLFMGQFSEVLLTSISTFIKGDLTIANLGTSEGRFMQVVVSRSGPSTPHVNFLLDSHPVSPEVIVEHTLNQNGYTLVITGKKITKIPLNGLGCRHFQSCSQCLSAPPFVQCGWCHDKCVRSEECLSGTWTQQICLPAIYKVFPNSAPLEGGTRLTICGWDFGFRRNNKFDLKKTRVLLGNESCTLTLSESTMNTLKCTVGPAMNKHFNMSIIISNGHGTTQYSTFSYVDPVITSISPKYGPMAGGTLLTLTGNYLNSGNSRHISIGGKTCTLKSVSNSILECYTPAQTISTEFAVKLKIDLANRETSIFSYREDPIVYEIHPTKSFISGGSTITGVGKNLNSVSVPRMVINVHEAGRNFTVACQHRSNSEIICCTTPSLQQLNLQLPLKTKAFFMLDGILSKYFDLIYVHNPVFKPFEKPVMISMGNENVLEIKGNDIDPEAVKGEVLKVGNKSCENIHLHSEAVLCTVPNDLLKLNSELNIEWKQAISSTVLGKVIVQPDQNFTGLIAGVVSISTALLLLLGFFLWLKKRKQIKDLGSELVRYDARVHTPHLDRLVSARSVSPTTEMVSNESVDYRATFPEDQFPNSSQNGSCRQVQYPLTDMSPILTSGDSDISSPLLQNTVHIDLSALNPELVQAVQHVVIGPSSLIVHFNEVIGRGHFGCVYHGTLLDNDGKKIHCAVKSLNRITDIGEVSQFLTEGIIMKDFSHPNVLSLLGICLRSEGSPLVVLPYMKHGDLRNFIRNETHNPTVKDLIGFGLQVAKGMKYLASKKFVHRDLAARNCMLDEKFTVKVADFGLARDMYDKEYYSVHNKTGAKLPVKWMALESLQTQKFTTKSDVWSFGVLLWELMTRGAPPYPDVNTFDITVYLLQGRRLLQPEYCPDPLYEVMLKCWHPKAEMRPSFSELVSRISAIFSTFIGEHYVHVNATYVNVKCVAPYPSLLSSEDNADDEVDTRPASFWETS

MINK1 = MINK1 (UniProt Q8N4C8); details: affinity matrix / lysate: Kinobeads, mixed HEK293/K-562/placenta lysate
PDGFRB = PDGFRB (UniProt P09619); details: affinity matrix / lysate: Kinobeads, mixed HEK293/K-562/placenta lysate
PDGFRB, sequence (P09619 whole entry): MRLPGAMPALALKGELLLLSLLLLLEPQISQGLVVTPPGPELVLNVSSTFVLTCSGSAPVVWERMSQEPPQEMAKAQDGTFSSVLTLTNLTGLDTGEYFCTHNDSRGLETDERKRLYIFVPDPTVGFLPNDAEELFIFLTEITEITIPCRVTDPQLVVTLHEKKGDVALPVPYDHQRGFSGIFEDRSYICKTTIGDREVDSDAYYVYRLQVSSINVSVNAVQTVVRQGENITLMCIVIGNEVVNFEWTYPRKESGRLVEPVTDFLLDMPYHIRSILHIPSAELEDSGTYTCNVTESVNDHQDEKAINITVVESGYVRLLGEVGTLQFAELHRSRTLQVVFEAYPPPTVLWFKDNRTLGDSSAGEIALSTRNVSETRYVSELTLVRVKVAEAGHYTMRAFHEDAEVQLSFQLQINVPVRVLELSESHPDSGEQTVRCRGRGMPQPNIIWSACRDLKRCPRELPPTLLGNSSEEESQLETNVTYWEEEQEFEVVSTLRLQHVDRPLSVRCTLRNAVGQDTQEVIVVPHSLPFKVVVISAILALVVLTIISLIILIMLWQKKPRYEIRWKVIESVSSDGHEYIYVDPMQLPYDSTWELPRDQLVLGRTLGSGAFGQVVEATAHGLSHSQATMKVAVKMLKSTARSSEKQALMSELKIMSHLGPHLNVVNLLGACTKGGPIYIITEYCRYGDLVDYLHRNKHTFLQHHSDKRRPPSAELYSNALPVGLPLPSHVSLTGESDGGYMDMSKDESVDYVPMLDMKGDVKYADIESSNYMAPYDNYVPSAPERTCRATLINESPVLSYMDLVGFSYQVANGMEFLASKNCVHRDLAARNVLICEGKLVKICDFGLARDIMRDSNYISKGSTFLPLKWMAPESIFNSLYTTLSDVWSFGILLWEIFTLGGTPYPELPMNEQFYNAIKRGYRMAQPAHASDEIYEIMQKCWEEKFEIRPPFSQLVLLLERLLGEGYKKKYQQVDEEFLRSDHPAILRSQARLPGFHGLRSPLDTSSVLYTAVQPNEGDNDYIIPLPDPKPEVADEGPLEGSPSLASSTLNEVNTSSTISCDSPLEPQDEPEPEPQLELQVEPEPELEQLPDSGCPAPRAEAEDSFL

PHKG2 = PHKG2 (UniProt P15735); details: affinity matrix / lysate: Kinobeads, mixed HEK293/K-562/placenta lysate
ROCK2 = ROCK2 (UniProt O75116); details: affinity matrix / lysate: Kinobeads, mixed HEK293/K-562/placenta lysate
STK10 = STK10 (UniProt O94804); details: affinity matrix / lysate: Kinobeads, mixed HEK293/K-562/placenta lysate
TGFBR1 = TGFBR1 (UniProt P36897); details: affinity matrix / lysate: Kinobeads, mixed HEK293/K-562/placenta lysate
TNK1 = TNK1 (UniProt Q13470); details: affinity matrix / lysate: Kinobeads, mixed HEK293/K-562/placenta lysate
ADCK4 = ADCK4 (UniProt Q96D53); details: affinity matrix / lysate: Kinobeads, mixed HEK293/K-562/placenta lysate
ADCK5 = ADCK5 (UniProt Q3MIX3); details: affinity matrix / lysate: Kinobeads, mixed HEK293/K-562/placenta lysate
CAMK1 = CAMK1 (UniProt Q14012); details: affinity matrix / lysate: Kinobeads, mixed HEK293/K-562/placenta lysate
CDK9 = CDK9 (UniProt P50750); details: affinity matrix / lysate: Kinobeads, mixed HEK293/K-562/placenta lysate
CSNK1G1 = CSNK1G1 (UniProt Q9HCP0); details: affinity matrix / lysate: Kinobeads, mixed HEK293/K-562/placenta lysate
MAP3K10 = MAP3K10 (UniProt Q02779); details: affinity matrix / lysate: Kinobeads, mixed HEK293/K-562/placenta lysate
MAP3K11 = MAP3K11 (UniProt Q16584); details: affinity matrix / lysate: Kinobeads, mixed HEK293/K-562/placenta lysate
MAPK10 = MAPK10 (UniProt P53779); details: affinity matrix / lysate: Kinobeads, mixed HEK293/K-562/placenta lysate
MAPK15 = MAPK15 (UniProt Q8TD08); details: affinity matrix / lysate: Kinobeads, mixed HEK293/K-562/placenta lysate
PRKACA = PRKACA (UniProt P17612); details: affinity matrix / lysate: Kinobeads, mixed HEK293/K-562/placenta lysate
RP6-213H19 1 = details: affinity matrix / lysate: Kinobeads, mixed HEK293/K-562/placenta lysate
SGK1 = SGK1 (UniProt O00141); details: affinity matrix / lysate: Kinobeads, mixed HEK293/K-562/placenta lysate
SIK1 = SIK1 (UniProt P57059); details: affinity matrix / lysate: Kinobeads, mixed HEK293/K-562/placenta lysate
TLK1 = TLK1 (UniProt Q9UKI8); details: affinity matrix / lysate: Kinobeads, mixed HEK293/K-562/placenta lysate
UHMK1 = UHMK1 (UniProt Q8TAS1); details: affinity matrix / lysate: Kinobeads, mixed HEK293/K-562/placenta lysate

## COc1ccc(-c2ccc3c(N4CCOC[C@@H]4C)nc(N4CCOC[C@@H]4C)nc3n2)cc1CO [AZD8055]
AAK1
  apparent dissociation constant (-log10 M): < 6
ATM
  apparent dissociation constant (-log10 M): 6.36
AURKC
  apparent dissociation constant (-log10 M): < 6
BRAF
  apparent dissociation constant (-log10 M): < 6
BRSK2
  apparent dissociation constant (-log10 M): < 6
EPHB2
  apparent dissociation constant (-log10 M): < 6
ERN1
  apparent dissociation constant (-log10 M): < 6
INSR
  apparent dissociation constant (-log10 M): < 6
MAPK7
  apparent dissociation constant (-log10 M): < 6
MARK4
  apparent dissociation constant (-log10 M): < 6
MET
  apparent dissociation constant (-log10 M): < 6
MINK1
  apparent dissociation constant (-log10 M): < 6
PDGFRB
  apparent dissociation constant (-log10 M): < 6
PHKG2
  apparent dissociation constant (-log10 M): < 6
ROCK2
  apparent dissociation constant (-log10 M): < 6
STK10
  apparent dissociation constant (-log10 M): < 6
TGFBR1
  apparent dissociation constant (-log10 M): < 6
TNK1
  apparent dissociation constant (-log10 M): < 6

## CCNC(=O)Nc1ccc(-c2nc(N3CCOC[C@@H]3C)c3c(n2)C(C)(C)S(=O)(=O)C3)cc1 [CZ415]
AAK1
  apparent dissociation constant (-log10 M): < 6
ADCK4
  apparent dissociation constant (-log10 M): < 6
ADCK5
  apparent dissociation constant (-log10 M): < 6
ATM
  apparent dissociation constant (-log10 M): < 6
BRAF
  apparent dissociation constant (-log10 M): < 6
BRSK2
  apparent dissociation constant (-log10 M): < 6
CAMK1
  apparent dissociation constant (-log10 M): < 6
CDK9
  apparent dissociation constant (-log10 M): < 6
CSNK1G1
  apparent dissociation constant (-log10 M): < 6
EPHB2
  apparent dissociation constant (-log10 M): < 6
ERN1
  apparent dissociation constant (-log10 M): < 6
INSR
  apparent dissociation constant (-log10 M): < 6
MAP3K10
  apparent dissociation constant (-log10 M): < 6
MAP3K11
  apparent dissociation constant (-log10 M): < 6
MAPK10
  apparent dissociation constant (-log10 M): < 6
MAPK15
  apparent dissociation constant (-log10 M): < 6
MAPK7
  apparent dissociation constant (-log10 M): < 6
MARK4
  apparent dissociation constant (-log10 M): < 6
MET
  apparent dissociation constant (-log10 M): < 6
MINK1
  apparent dissociation constant (-log10 M): < 6
PDGFRB
  apparent dissociation constant (-log10 M): < 6
PHKG2
  apparent dissociation constant (-log10 M): < 6
PRKACA
  apparent dissociation constant (-log10 M): < 6
RP6-213H19 1
  apparent dissociation constant (-log10 M): < 6
SGK1
  apparent dissociation constant (-log10 M): < 6
SIK1
  apparent dissociation constant (-log10 M): < 6
STK10
  apparent dissociation constant (-log10 M): < 6
TGFBR1
  apparent dissociation constant (-log10 M): < 6
TLK1
  apparent dissociation constant (-log10 M): < 6
TNK1
  apparent dissociation constant (-log10 M): < 6
UHMK1
  apparent dissociation constant (-log10 M): < 6
